What follows are molecules tested against T1, Recombinant human CBP containing the bromodomain (CBP-BD (1043-1159)) (Homo sapiens, UniProt Q92793) (assay: CBP Alphascreen binding assay). Details: read-out: CREBBP (CBP) IC50.
T1 construct: Recombinant human CBP bromodomain (CBP-BD (1043-1159)); made in house; host or cells: E. coli BL21-CodonPlus (DE3), modified pET vector
Protocol: CBP Alphascreen Binding Assay
Binding of compounds of Formula (I) with CBP was assessed using Alphascreen™ binding assay. The inhibition of the interaction between the CBP bromodomain and its acetylated target protein was measured quantitatively using recombinant CBP, an acetylated Histone 3 peptide and AlphaScreen™ technology. In absence of inhibition of the CBP protein bound to AlphaScreen™ nickel chelate acceptor beads can interact with the acetylated Histone 3 peptide which was immobilized by the AlphaScreen™ Streptavidin coated beads. This interaction brings donor and acceptor beads in proximity. The close proximity allows the singlet oxygen produced by laser excitation of the donor beads to reach the acceptor beads and generate a luminescence signal. CBP inhibitors result in a decrease in the proximity signal through an inhibition of the CBP—acetylated peptide interaction.
Recombinant human CBP containing the bromodomain (CBP-BD (1043-1159)) was prepared and purified as described in protein expression and purification session. The peptide was human Histone H345-64K56Ac-Biotin (Anaspec CA, USA).
Protocol for CBP assay: All components are prepared in buffer composed of 50 mM HEPES pH 7.5, 50 mM NaCl, 0.01% BSA, 0.01% Triton X-100, 2 mM DTT. Test compounds and DMSO vehicle are diluted 1:50 in buffer and a 4 μL volume was transferred to an Alphaplate. 5.5 μL of CBP protein and 5.5 μL of peptide are added to wells containing 4 μL of various concentrations of test compounds of Formula (I) or DMSO vehicle in an Alphaplate (PerkinElmer GA, USA) and incubated for 1 hour at room temperature. 5 μL donor and acceptor bead mixture was then added with final concentrations of 7.5 μg/ml. 60 minutes after bead addition, Alpha signal was read on the Envision spectrometer (λEx 680 nm, λEm 520-620 nm). Final concentrations of bromodomain proteins and peptide are as shown below.
All data were normalized to the mean of 16 high and 16 low control wells on each plate. A four parameter curve fit of the following formula was then applied: Y=A+((B−A)/(1+((C/x)^D))) Where ‘A’ is the minimum, ‘B’ is the maximum, ‘C’ is the IC50 and ‘D’ is the Hill slope. Protein Expression and Purification
Recombinant human CBP bromodomain (CBP-BD (1043-1159)) was expressed in E. coli cells (in a modified pET vector) with an N-terminal six-His tag and purified using a combination of both IMAC (Ni-affinity) and size exclusion chromatography steps.
Recombinant CBP protein was expressed using the E. coli strain BL21-CodonPlus (DE3) (Agilent Technologies CA, USA). Cells were grown in Terrific Broth (TB) media to an OD600 of 0.92 at 37° C. at which temperature was reduced to 20° C., protein was induced with 1.0 mM isopropyl-β-D-thiogalactopyranoside (“IPTG”) for 20 hours and harvested by centrifugation at 8500×g for 20 minutes. Cells were re-suspended in 0.1M K2PO4 pH 8.0, 250 mM NaCl, 10% Glycerol, 0.75% NP-40, 25 mM Imidazole, with 0.2 mg/ml Lysozyme, 0.2 mM phenylmethanesulfonyl fluoride (“PMSF”), […] (“BME”), 25 μg/ml DNase I, incubated on ice for 30 minutes and lysed with a cell disruptor (MicroFluidics MA, USA). The lysate was clarified by centrifugation at 20,000×g for 1 hour. The protein was captured with Ni-NTA resin (Life Technologies, USA). Contaminating proteins were washed off with 40 mM HEPES pH 7.5, 500 mM NaCl, 5% Glycerol, 5 mM Imidazole, and 5 mM BME. Following 3× wash steps, protein was eluted using 400 mM Imidazole in 40 mM HEPES pH 7.5, 400 mM NaCl, and 5 mM BME. The protein was further purified using a size exclusion column (26/600 Superdex 200, GE Biosciences NJ, USA) in 40 mM HEPES pH 7.5, 250 mM NaCl, 5 mM BME. The protein was aliquoted and flash-frozen in liquid Nitrogen.

T1 sequence (Q92793 1081-1197): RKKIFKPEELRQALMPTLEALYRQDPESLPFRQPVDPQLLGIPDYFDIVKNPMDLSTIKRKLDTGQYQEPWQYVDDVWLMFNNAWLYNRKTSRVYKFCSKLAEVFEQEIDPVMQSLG

SMILES | IC50 [µM]
Cc1noc(C)c1-c1cnc2c(c1)c(-c1c(OC(C)C)cc(C(=O)O)cc1OC(C)C)cn2[C@@H](C)c1ccccn1 [P-0118, (S)-4-(5-(3,5-dimethylisoxazol-4-yl)-1-(1-(pyridin-2-yl)ethyl)-1H-pyrrolo[2,3-b]pyridin-3-yl)-3,5-diisopropoxybenzoic acid] | 0.0001 to 1
Cc1noc(C)c1-c1cnc2c(C(O)(C3CC3)C3CC3)cn(-c3ccc(C(=O)O)cc3OC(F)(F)F)c2c1 [P-0163, 4-(3-(dicyclopropyl(hydroxy)methyl)-6-(3,5-dimethylisoxazol-4-yl)-1H-pyrrolo[3,2-b]pyridin-1-yl)-3-(trifluoromethoxy)benzoic acid] | 0.0001 to 1
Cc1noc(C)c1-c1cnc2c(-c3cnn(C)c3)c(C(F)(F)F)n([C@@H](C)c3ccccn3)c2c1 [P-0160, (S)-3,5-dimethyl-4-(3-(1-methyl-1H-pyrazol-4-yl)-1-(1-(pyridin-2-yl)ethyl)-2-(trifluoromethyl)-1H-pyrrolo[3,2-b]pyridin-6-yl)isoxazole] | 0.0001 to 1
Cc1noc(C)c1-c1cnc2c(c1)c(-c1ccc(C(=O)O)cc1OC(C)C)cn2[C@@H](C)c1ccccn1 [P-0112, (S)-4-(5-(3,5-dimethylisoxazol-4-yl)-1-(1-(pyridin-2-yl)ethyl)-1H-pyrrolo[2,3-b]pyridin-3-yl)-3-isopropoxybenzoic acid] | 0.0001 to 1
Cc1noc(C)c1-c1cnc2c(c1)c(-c1cncc(C(=O)O)n1)cn2[C@@H](C)c1ccccn1 [P-0106, (S)-6-(5-(3,5-dimethylisoxazol-4-yl)-1-(1-(pyridin-2-yl)ethyl)-1H-pyrrolo[2,3-b]pyridin-3-yl)pyrazine-2-carboxylic acid] | 1 to 8
CC[C@@H](c1ccccn1)n1cc(-c2cc(C(=O)O)ccc2Cl)c2ncc(-c3c(C)noc3C)cc21 [P-0148, (S)-4-chloro-3-(6-(3,5-dimethylisoxazol-4-yl)-1-(1-(pyridin-2-yl)propyl)-1H-pyrrolo[3,2-b]pyridin-3-yl)benzoic acid] | 0.0001 to 1
Cc1noc(C)c1-c1cnc2c(CC3CCC3)cn(-c3ccc(C(=O)O)c(C#N)c3)c2c1 [P-0105, 2-cyano-4-(3-(cyclobutylmethyl)-6-(3,5-dimethylisoxazol-4-yl)-1H-pyrrolo[3,2-b]pyridin-1-yl)benzoic acid] | 0.0001 to 1
Cc1noc(C)c1-c1cnc2c(C3=CCOCC3)cn(-c3c(Cl)cc(C(=O)O)cc3Cl)c2c1 [P-0151, 3,5-dichloro-4-(3-(3,6-dihydro-2H-pyran-4-yl)-6-(3,5-dimethylisoxazol-4-yl)-1H-pyrrolo[3,2-b]pyridin-1-yl)benzoic acid] | 0.0001 to 1
CCOc1cc(C(=O)O)cc(F)c1-n1cc(CC2CCC2)c2ncc(-c3c(C)noc3C)cc21 [P-0108, 4-(3-(cyclobutylmethyl)-6-(3,5-dimethylisoxazol-4-yl)-1H-pyrrolo[3,2-b]pyridin-1-yl)-3-ethoxy-5-fluorobenzoic acid] | 0.0001 to 1
COc1ccc(C(=O)O)cc1-n1cc(CC2CCC2)c2ncc(-c3c(C)noc3C)cc21 [P-0098, 3-(3-(cyclobutylmethyl)-6-(3,5-dimethylisoxazol-4-yl)-1H-pyrrolo[3,2-b]pyridin-1-yl)-4-methoxybenzoic acid] | 0.0001 to 1
Cc1noc(C)c1-c1cnc2c(c1)c(-c1ccnc(O)c1)cn2[C@@H](C)c1ccccn1 [P-0145, (S)-4-(5-(3,5-dimethylisoxazol-4-yl)-1-(1-(pyridin-2-yl)ethyl)-1H-pyrrolo[2,3-b]pyridin-3-yl)pyridin-2-ol] | 8 to 1000
COc1cc(C(=O)O)ccc1-c1cn([C@@H](C)c2ccccn2)c2cc(-c3c(C)noc3C)cnc12 [P-0142, (S)-4-(6-(3,5-dimethylisoxazol-4-yl)-1-(1-(pyridin-2-yl)ethyl)-1H-pyrrolo[3,2-b]pyridin-3-yl)-3-methoxybenzoic acid] | 0.0001 to 1
Cc1noc(C)c1-c1cnc2c(c1)c(-c1ccc(C(=O)O)cc1OCC(F)(F)F)cn2[C@@H](C)c1ccccn1 [P-0115, (S)-4-(5-(3,5-dimethylisoxazol-4-yl)-1-(1-(pyridin-2-yl)ethyl)-1H-pyrrolo[2,3-b]pyridin-3-yl)-3-(2,2,2-trifluoroethoxy)benzoic acid] | 0.0001 to 1

— patent publication US11446287B2, “Compounds and methods for EP300 or CBP modulation and indications therefor” (Opna Immuno-Oncology SA, priority 2019, dated 2022)
